Tested on: HCT116 cells
Experiment: In vitro cytotoxicity measured by the cell colony formation assay
Assay type: cell-based
Details: HCT116 cells, 72 h incubation with drug, colonies counted after 7 days; ID50 = drug concentration producing 50% inhibition of colony formation; read-out: IN VITRO ID 50 (nm) HCT116
Procedure: (§1) Four hundred cells (HCT116) were plated in 60 mm Petri dishes containing 2.7 mL of medium (modified McCoy's 5a medium containing 10% fetal bovine serum and 100 units/mL penicillin and 100 µg/mL streptomycin). The cells were incubated in a CO2 incubator at 37° C. for 5 h for attachment to the bottom of Petri dishes. The compounds identified in Example 2 were made up fresh in medium at ten times the final concentration, and then 0.3 mL of this stock solution was added to the 2.7 mL of medium in the dish. The cells were then incubated with drugs for 72 h at 37° C. At the end of incubation the drug-containing media were decanted, the dishes were rinsed with 4 mL of Hank's Balance Salt Solution (HBSS), 5 mL of fresh medium was added, and the dishes were returned to the incubator for colony formation. The cell colonies were counted using a colony counter after incubation for 7 days.
as §1, with “Example 7” for “Example 2”
as §1, with “Example 22” for “Example 2”
as §1, with “Example 27” for “Example 2”
Four hundred cells (HCT116) were plated in 60 mm Petri dishes containing 2.7 mL of medium (modified McCoy's 5a medium containing 10% fetal bovine serum and 100 units/mL penicillin and 100 µg/mL streptomycin). The cells were incubated in a CO2 incubator at 37° C. for 5 h for attachment to the bottom of Petri dishes. […]

Question: How did the IC50 turn out when `CCOC(=O)O[C@H]1C[C@H]2OC[C@@]2(OC(C)=O)C2[C@H](OC(=O)c3ccccc3)[C@]3(O)C[C@H](OC(=O)[C@H](O)[C@@H](NC(=O)OC(C)C)c4cccs4)C(C)=C([C@@H](O)C(=O)[C@@]21C)C3(C)C` (stereo partly drawn) [Compound 4151] was run?
Answer: < 1 nM

Question: For `COC(=O)O[C@H]1C[C@H]2OC[C@@]2(OC(C)=O)C2[C@H](OC(=O)c3ccccc3)[C@]3(O)C[C@H](OC(=O)[C@H](O)[C@@H](NC(=O)OCC(C)C)c4ccsc4)C(C)=C([C@@H](O)C(=O)[C@@]21C)C3(C)C` (stereo partly drawn) [Compound 4674], which IC50 is on record?
Answer: < 1 nM

Question: With `CCOC(=O)O[C@H]1C(=O)[C@@]2(C)C([C@H](OC(=O)c3ccccc3)[C@]3(O)C[C@H](OC(=O)[C@H](O)[C@@H](NC(=O)OC(C)(C)C)c4ccsc4)C(C)=C1C3(C)C)[C@]1(OC(C)=O)CO[C@@H]1C[C@@H]2O` (stereo partly drawn) [Compound 1841] as the compound, how does the IC50 read?
Answer: < 1 nM

Question: With `COC(=O)O[C@H]1C[C@H]2OC[C@@]2(OC(C)=O)C2[C@H](OC(=O)c3ccccc3)[C@]3(O)C[C@H](OC(=O)[C@H](O)[C@H](C=C(C)C)NC(=O)OC(C)(C)C)C(C)=C([C@@H](O)C(=O)[C@@]21C)C3(C)C` (stereo partly drawn) [Compound 4484] as the compound, how does the IC50 read?
Answer: < 1 nM

Same assay, conditions: HCT116 cells, colony formation, 72 h incubation with drug, colonies counted after 7 days; ID50 = drug concentration producing 50% inhibition of colony formation; read-out: IN VITRO ID 50 (nm) HCT116

Question: Which IC50 does the source give for `CCNC(=O)O[C@H]1C(=O)[C@@]2(C)C([C@H](OC(=O)c3ccccc3)[C@]3(O)C[C@H](OC(=O)[C@H](O)[C@@H](NC(=O)OC(C)(C)C)c4cccnc4)C(C)=C1C3(C)C)[C@]1(OC(C)=O)CO[C@@H]1C[C@@H]2O` (stereo partly drawn) [Compound 2616] here?
Answer: 27 nM

Same assay, conditions: HCT116 colony formation; 72 h drug incubation, colonies counted after 7 days; Example 5, C-7 ester/C-10 hydroxy taxanes; read-out: IN VITRO ID 50 (nm) HCT116

Question: Which IC50 does the source give for `C/C=C/C(=O)N[C@@H](c1ccsc1)[C@@H](O)C(=O)O[C@H]1C[C@@]2(O)[C@@H](OC(=O)c3ccccc3)C3[C@](C)(C(=O)[C@H](O)C(=C1C)C2(C)C)[C@@H](OC(=O)CC)C[C@H]1OC[C@@]31OC(C)=O` (stereo partly drawn) [Compound 5020] here?
Answer: < 1 nM

Question: `CCCC(=O)O[C@H]1C[C@H]2OC[C@@]2(OC(C)=O)C2[C@H](OC(=O)c3ccccc3)[C@]3(O)C[C@H](OC(=O)[C@H](O)[C@@H](NC(=O)OCC(C)C)C4CC4)C(C)=C([C@@H](O)C(=O)[C@@]21C)C3(C)C` (stereo partly drawn) [Compound 5202] was tested. Which IC50 did it give?
Answer: < 10 nM

Question: With `CCCC(=O)O[C@H]1C[C@H]2OC[C@@]2(OC(C)=O)C2[C@H](OC(=O)c3ccccc3)[C@]3(O)C[C@H](OC(=O)[C@H](O)[C@@H](NC(=O)OC(C)(C)C)C4CC4)C(C)=C([C@@H](O)C(=O)[C@@]21C)C3(C)C` (stereo partly drawn) [Compound 5080] as the compound, how does the IC50 read?
Answer: < 1 nM

Question: `CCOC(=O)N[C@@H](c1ccco1)[C@@H](O)C(=O)O[C@H]1C[C@@]2(O)[C@@H](OC(=O)c3ccccc3)C3[C@](C)(C(=O)[C@H](O)C(=C1C)C2(C)C)[C@@H](OC(=O)CC)C[C@H]1OC[C@@]31OC(C)=O` (stereo partly drawn) [Compound 3611] was tested. Which IC50 did it give?
Answer: < 1 nM

Question: Which IC50 does the source give for `C/C=C/C(=O)N[C@@H](c1ccsc1)[C@@H](O)C(=O)O[C@H]1C[C@@]2(O)[C@@H](OC(=O)c3ccccc3)C3[C@](C)(C(=O)[C@H](O)C(=C1C)C2(C)C)[C@@H](OC(=O)CCC)C[C@H]1OC[C@@]31OC(C)=O` (stereo partly drawn) [Compound 5030] here?
Answer: < 1 nM

Question: How did the IC50 turn out when `CCCC(=O)O[C@H]1C[C@H]2OC[C@@]2(OC(C)=O)C2[C@H](OC(=O)c3ccccc3)[C@]3(O)C[C@H](OC(=O)[C@H](O)[C@@H](NC(=O)OC(C)(C)C)c4ccoc4)C(C)=C([C@@H](O)C(=O)[C@@]21C)C3(C)C` (stereo partly drawn) [Compound 4394] was run?
Answer: < 1 nM

Question: `CCC(=O)O[C@H]1C[C@H]2OC[C@@]2(OC(C)=O)C2[C@H](OC(=O)c3ccccc3)[C@]3(O)C[C@H](OC(=O)[C@H](O)[C@H](C=C(C)C)NC(=O)OCC(C)C)C(C)=C([C@@H](O)C(=O)[C@@]21C)C3(C)C` (stereo partly drawn) [Compound 5121] was tested. Which IC50 did it give?
Answer: 21.1 nM

Same assay, conditions: HCT116 colony formation; 72 h drug incubation, colonies counted after 7 days; Example 10, C-10 ester/C-7 hydroxy taxanes; read-out: IN VITRO ID 50 (nm) HCT116

Question: For `C/C=C/C(=O)O[C@H]1C(=O)[C@@]2(C)C([C@H](OC(=O)c3ccccc3)[C@]3(O)C[C@H](OC(=O)[C@H](O)[C@@H](NC(=O)OC(C)(C)C)c4ccoc4)C(C)=C1C3(C)C)[C@]1(OC(C)=O)CO[C@@H]1C[C@@H]2O` (stereo partly drawn) [Compound 2380], which IC50 is on record?
Answer: < 1 nM

Question: For `CC(=O)O[C@@]12CO[C@@H]1C[C@H](O)[C@@]1(C)C(=O)[C@H](OC(=O)C3CC3)C3=C(C)[C@@H](OC(=O)[C@H](O)[C@@H](NC(=O)c4ccccc4)c4ccncc4)C[C@@](O)([C@@H](OC(=O)c4ccccc4)C12)C3(C)C` (stereo partly drawn) [Compound 2855], which IC50 is on record?
Answer: < 1 nM

Question: How did the IC50 turn out when `CC(=O)OC12COC1CC(O)C1(C)C(=O)C(OC(=O)c3cccs3)C3=C(C)C(OC(=O)C(O)C(NC(=O)OC(C)(C)C)c4ccc([N+](=O)[O-])cc4)CC(O)(C(OC(=O)c4ccccc4)C21)C3(C)C` (stereo not drawn) [Compound 1911] was run?
Answer: < 10 nM

Question: Which IC50 does the source give for `CCC(=O)O[C@H]1C(=O)[C@@]2(C)C([C@H](OC(=O)c3ccccc3)[C@]3(O)C[C@H](OC(=O)[C@H](O)[C@@H](NC(=O)OC(C)C)c4ccco4)C(C)=C1C3(C)C)[C@]1(OC(C)=O)CO[C@@H]1C[C@@H]2O` (stereo partly drawn) [Compound 3522] here?
Answer: < 1 nM

Question: How did the IC50 turn out when `CCCC(=O)OC1C(=O)C2(C)C(O)CC3OCC3(OC(C)=O)C2C(OC(=O)c2ccccc2)C2(O)CC(OC(=O)C(O)C(NC(=O)OC(C)(C)C)C(C)C)C(C)=C1C2(C)C` (stereo not drawn) [Compound 1031] was run?
Answer: < 10 nM

Question: For `CCC(=O)O[C@H]1C(=O)[C@@]2(C)C([C@H](OC(=O)c3ccccc3)[C@]3(O)C[C@H](OC(=O)[C@H](O)[C@@H](NC(=O)OC(C)(C)CC)c4ccco4)C(C)=C1C3(C)C)[C@]1(OC(C)=O)CO[C@@H]1C[C@@H]2O` (stereo partly drawn) [Compound 6522], which IC50 is on record?
Answer: < 1 nM

Question: With `CCCC(=O)O[C@H]1C(=O)[C@@]2(C)C([C@H](OC(=O)c3ccccc3)[C@]3(O)C[C@H](OC(=O)[C@H](O)[C@H](C=C(C)C)NC(=O)OC(C)(C)C)C(C)=C1C3(C)C)[C@]1(OC(C)=O)CO[C@@H]1C[C@@H]2O` (stereo partly drawn) [Compound 0947] as the compound, how does the IC50 read?
Answer: < 1 nM

Question: With `CCCC(=O)O[C@H]1C(=O)[C@@]2(C)C([C@H](OC(=O)c3ccccc3)[C@]3(O)C[C@H](OC(=O)[C@H](O)[C@@H](NC(=O)OC(C)(C)C)c4cccs4)C(C)=C1C3(C)C)[C@]1(OC(C)=O)CO[C@@H]1C[C@@H]2O` (stereo partly drawn) [Compound 1003] as the compound, how does the IC50 read?
Answer: < 1 nM

Question: Which IC50 does the source give for `CCC(=O)O[C@H]1C(=O)[C@@]2(C)C([C@H](OC(=O)c3ccccc3)[C@]3(O)C[C@H](OC(=O)[C@H](O)[C@@H](NC(=O)c4ccccc4)C(C)C)C(C)=C1C3(C)C)[C@]1(OC(C)=O)CO[C@@H]1C[C@@H]2O` (stereo partly drawn) [Compound 0719] here?
Answer: < 10 nM

Question: With `C/C=C/C(=O)O[C@H]1C(=O)[C@@]2(C)C([C@H](OC(=O)c3ccccc3)[C@]3(O)C[C@H](OC(=O)[C@H](O)[C@@H](NC(=O)OC(C)(C)C)c4ccco4)C(C)=C1C3(C)C)[C@]1(OC(C)=O)CO[C@@H]1C[C@@H]2O` (stereo partly drawn) [Compound 2379] as the compound, how does the IC50 read?
Answer: < 1 nM

Same assay, conditions: HCT116 colony formation; 72 h drug incubation, colonies counted after 7 days; Example 15, C-7 substituted acetate/C-10 hydroxy taxanes; read-out: IN VITRO ID 50 (nm) HCT116

Question: With `CCC(C)(C)OC(=O)NC(c1ccco1)C(O)C(=O)OC1CC2(O)C(OC(=O)c3ccccc3)C3C4(OC(C)=O)COC4CC(OC(=O)COC)C3(C)C(=O)C(O)C(=C1C)C2(C)C` (stereo not drawn) [Compound 6226, N-Debenzoyl-N-tert-amyloxycarbonyl-3′-desphenyl-3′-(2-furyl)-10-deacetyl-7-methoxyacetyl taxol] as the compound, how does the IC50 read?
Answer: < 1 nM

Same assay, conditions: HCT116 colony formation; 72 h drug incubation, colonies counted after 7 days; Example 20, C-10 substituted acetate/C-7 hydroxy taxanes; read-out: IN VITRO ID 50 (nm) HCT116

Question: For `C/C=C/C(=O)N[C@@H](c1ccco1)[C@@H](O)C(=O)O[C@H]1C[C@@]2(O)[C@@H](OC(=O)c3ccccc3)C3[C@](C)(C(=O)[C@H](OC(=O)COC)C(=C1C)C2(C)C)[C@@H](O)C[C@H]1OC[C@@]31OC(C)=O` (stereo partly drawn) [Compound 6066], which IC50 is on record?
Answer: < 1 nM

Reference: patent publication US6638973B2, “Taxane formulations” (FSU Research Foundation, Inc., priority 2000, dated 2003)
